According to PMC8493129, “Design and Synthesis of New Quinoxaline Derivatives as Potential Histone Deacetylase Inhibitors Targeting Hepatocellular Carcinoma: In Silico, In Vitro, and SAR Studies” (Frontiers in Chemistry, 2021):

Legend:
[1] = test system: HepG-2 liver cancer cell line; assay: Anti-proliferative activity (MTT / SRB assay), HepG-2; assay type: cell-based, human; details: for IC50: Homo sapiens, HepG2, mean of three separate experiments
Protocol: (§1) The new quinoxaline derivatives of the five series: 6, 7, 8, 9, and 10 were evaluated for their potential anti-proliferative activity against two liver cancer cell lines (HepG-2 and HuH-7) obtained from the American Type Culture Collection.

[2] = test system: HuH-7 liver cancer cell line; assay: Anti-proliferative activity (MTT / SRB assay), HuH-7; assay type: cell-based, human; details: for IC50: Homo sapiens, mean of three separate experiments
Protocol: as §1

Bax = assay: Apoptotic marker level (Bax) in HepG-2 cells; assay type: cell-based, human; details: control 24.37 pg/ml
Protocol: (§2) The method was performed in detail as previously explained ([Eliaa et al., 2020]).

HDAC1 = HDAC1 (Homo sapiens, UniProt Q13547); assay: Histone deacetylase inhibition, homogeneous fluorescence release assay
Sequence of HDAC1 (Q13547 whole entry): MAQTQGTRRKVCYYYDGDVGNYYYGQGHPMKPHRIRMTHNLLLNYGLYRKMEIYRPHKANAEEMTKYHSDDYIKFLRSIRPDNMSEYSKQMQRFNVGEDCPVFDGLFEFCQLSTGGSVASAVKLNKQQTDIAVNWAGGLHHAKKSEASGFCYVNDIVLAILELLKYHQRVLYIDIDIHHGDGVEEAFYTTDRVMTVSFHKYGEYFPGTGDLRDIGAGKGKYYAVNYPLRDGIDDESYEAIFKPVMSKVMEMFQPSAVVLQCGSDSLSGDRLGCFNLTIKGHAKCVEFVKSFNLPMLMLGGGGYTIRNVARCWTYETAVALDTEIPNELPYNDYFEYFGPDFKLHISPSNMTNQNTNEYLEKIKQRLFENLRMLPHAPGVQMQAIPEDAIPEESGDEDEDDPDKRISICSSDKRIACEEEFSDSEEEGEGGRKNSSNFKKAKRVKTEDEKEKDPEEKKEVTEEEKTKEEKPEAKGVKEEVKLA

Bcl-2 = assay: Anti-apoptotic marker level (Bcl-2) in HepG-2 cells; assay type: cell-based, human; details: control 5.048 pg/ml
Protocol: as §2

HDAC4 = HDAC4 (Homo sapiens, UniProt P56524); assay: Histone deacetylase inhibition, homogeneous fluorescence release assay
Sequence of HDAC4 (P56524 whole entry): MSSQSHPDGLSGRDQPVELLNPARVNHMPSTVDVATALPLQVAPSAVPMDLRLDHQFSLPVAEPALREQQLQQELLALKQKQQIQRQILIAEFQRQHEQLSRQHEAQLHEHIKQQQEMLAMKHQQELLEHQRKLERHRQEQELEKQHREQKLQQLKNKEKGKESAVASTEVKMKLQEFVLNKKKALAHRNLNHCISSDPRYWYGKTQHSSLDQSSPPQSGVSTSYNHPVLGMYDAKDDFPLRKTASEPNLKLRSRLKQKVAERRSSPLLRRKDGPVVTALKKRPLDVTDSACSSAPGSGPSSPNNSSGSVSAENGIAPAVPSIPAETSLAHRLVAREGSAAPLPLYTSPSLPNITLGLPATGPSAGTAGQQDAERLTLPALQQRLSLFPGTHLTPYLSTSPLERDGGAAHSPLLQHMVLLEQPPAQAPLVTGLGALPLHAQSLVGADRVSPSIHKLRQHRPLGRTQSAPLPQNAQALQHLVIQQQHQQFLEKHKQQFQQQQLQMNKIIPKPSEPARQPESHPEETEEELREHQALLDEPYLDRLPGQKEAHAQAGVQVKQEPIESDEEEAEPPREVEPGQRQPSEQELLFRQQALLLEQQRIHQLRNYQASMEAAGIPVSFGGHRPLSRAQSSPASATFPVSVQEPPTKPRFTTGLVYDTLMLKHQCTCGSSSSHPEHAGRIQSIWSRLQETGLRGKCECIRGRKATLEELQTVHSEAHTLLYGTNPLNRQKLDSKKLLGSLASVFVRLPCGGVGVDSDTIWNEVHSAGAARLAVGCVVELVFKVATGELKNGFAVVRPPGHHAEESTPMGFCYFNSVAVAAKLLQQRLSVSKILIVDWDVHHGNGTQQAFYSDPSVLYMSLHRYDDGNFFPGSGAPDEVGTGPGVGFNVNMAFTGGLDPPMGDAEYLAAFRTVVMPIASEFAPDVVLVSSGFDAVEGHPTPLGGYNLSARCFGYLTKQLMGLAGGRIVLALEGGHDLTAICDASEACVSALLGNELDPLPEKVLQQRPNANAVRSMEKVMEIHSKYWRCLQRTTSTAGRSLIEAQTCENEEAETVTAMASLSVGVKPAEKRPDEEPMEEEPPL

HDAC6 = biological target: T1, HDAC6 (Homo sapiens, UniProt Q9UBN7); assay: as above
T1 sequence (Q9UBN7 1-1215): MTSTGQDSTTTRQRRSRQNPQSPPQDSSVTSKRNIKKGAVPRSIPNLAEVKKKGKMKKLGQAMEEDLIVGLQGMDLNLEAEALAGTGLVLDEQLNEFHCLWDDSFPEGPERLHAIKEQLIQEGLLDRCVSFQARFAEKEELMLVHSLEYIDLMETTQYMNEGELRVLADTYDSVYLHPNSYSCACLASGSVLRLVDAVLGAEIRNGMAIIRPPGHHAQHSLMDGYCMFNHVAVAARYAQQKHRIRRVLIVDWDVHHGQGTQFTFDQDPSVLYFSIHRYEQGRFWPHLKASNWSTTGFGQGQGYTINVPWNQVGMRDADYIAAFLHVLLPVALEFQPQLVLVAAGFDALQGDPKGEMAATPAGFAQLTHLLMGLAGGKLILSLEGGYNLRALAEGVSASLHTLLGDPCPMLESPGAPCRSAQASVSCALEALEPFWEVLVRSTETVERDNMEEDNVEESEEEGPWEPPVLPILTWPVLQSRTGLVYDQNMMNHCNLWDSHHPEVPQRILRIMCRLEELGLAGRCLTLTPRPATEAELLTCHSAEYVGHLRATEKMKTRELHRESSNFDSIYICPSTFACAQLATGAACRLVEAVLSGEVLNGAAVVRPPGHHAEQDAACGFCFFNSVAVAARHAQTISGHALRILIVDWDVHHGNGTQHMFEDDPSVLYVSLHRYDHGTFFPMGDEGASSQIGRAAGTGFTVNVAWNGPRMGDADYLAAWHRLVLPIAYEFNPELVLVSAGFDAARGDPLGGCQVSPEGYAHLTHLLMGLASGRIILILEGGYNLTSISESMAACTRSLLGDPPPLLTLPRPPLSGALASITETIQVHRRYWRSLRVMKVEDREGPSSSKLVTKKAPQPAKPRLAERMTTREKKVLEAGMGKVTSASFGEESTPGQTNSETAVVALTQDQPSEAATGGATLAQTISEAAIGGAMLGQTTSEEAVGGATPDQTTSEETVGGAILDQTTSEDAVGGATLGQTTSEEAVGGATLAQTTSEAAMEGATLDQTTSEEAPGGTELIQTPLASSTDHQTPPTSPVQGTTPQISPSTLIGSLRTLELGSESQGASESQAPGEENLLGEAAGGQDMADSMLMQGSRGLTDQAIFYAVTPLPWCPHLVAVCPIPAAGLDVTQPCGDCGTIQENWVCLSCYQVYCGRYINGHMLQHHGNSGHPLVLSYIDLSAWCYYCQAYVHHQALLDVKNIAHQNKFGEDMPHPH

[3] = test system: HepG-2 and HuH-7 liver cancer cell lines; assay: Anti-proliferative activity, statements covering both cell lines; assay type: cell-based, human; details: class by IC50 on HepG-2 and HuH-7
Protocol: as §1

| SMILES | IC50 ([1]; HepG-2) [µM] | IC50 [2] [µM] | IC50 (HDAC1) [µM] | IC50 (HDAC4) [µM] | IC50 (HDAC6) [µM] | Bax (Bax) [pg/mL] | Bcl-2 (Bcl-2) [pg/mL] | further results |
| --- | --- | --- | --- | --- | --- | --- | --- | --- |
| Clc1nc2ccccc2nc1NN=Cc1ccccc1 [Compound 6 a, 2-(2-Benzylidenehydrazinyl)-3-chloroquinoxaline] | 14.3 | 18.2 | – | – | – | – | – | – |
| Clc1ccccc1C=NNc1nc2ccccc2nc1Cl [Compound 6 b, 2-Chloro-3-(2-(2-chlorobenzylidene)hydrazinyl)quinoxaline] | 15.8 | 18.7 | – | – | – | – | – | – |
| Clc1cccc(Cl)c1C=NNc1nc2ccccc2nc1Cl [Compound 6 e, 2-Chloro-3-(2-(2,6-dichlorobenzylidene)hydrazinyl)quinoxaline] | 13.5 | 17.5 | – | – | – | – | – | – |
| COc1cc(C=NNc2nc3ccccc3nc2Cl)cc(OC)c1OC [Compound 6 h, 2-Chloro-3-(2-(3,4,5-trimethoxybenzylidene)hydrazinyl)quinoxaline] | 11.8 | 14.7 | – | – | – | – | – | – |
| O=[N+]([O-])c1cccc(C=NNc2nc3ccccc3nc2Cl)c1 [Compound 6 i, 2-Chloro-3-(2-(3-nitrobenzylidene)hydrazinyl)quinoxaline] | 63.9 | 65.7 | – | – | – | – | – | – |
| O=[N+]([O-])c1ccc(C=NNc2nc3ccccc3nc2Cl)cc1 [Compound 6 j, 2-Chloro-3-(2-(4-nitrobenzylidene)hydrazinyl)quinoxaline] | 15.9 | 25.8 | – | – | – | – | – | – |
| CC(=NNc1nc2ccccc2nc1Cl)c1ccccc1 [Compound 7 a, 2-Chloro-3-(2-(1-phenylethylidene)hydrazinyl)quinoxaline] | 28.5 | 37.1 | – | – | – | – | – | – |
| Oc1ccc2ccccc2c1C=NNc1nc2ccccc2nc1Cl [Compound 8, 1-((2-(3-Chloroquinoxalin-2-yl)hydrazono)methyl)naphthalen-2-ol] | 3.88 | 6.14 | 1.72 | 2.09 | 4.37 | 233.6 | 1.839 | cytotoxic (anti-proliferative) activity class [3]: very strong (1–10 (very strong)); fold increase in activity versus corresponding member 11, HepG-2 ([1]; ratio of IC50 values, HepG-2): 4.76 fold; fold more active than compound 9 ([1]; ratio of IC50 values, stated for the two cell lines, figure fits HepG-2): 2.98 fold; fold increase in activity versus corresponding member 11, HuH-7 ([2]; ratio of IC50 values): 3.30 fold |
| COc1nc2ccccc2nc1NN=Cc1ccc(Cl)cc1 [Compound 10 a, 2-(2-(4-Chlorobenzylidene)hydrazinyl)-3-methoxyquinoxaline] | 53.9 | 57.8 | – | – | – | – | – | – |
| COc1nc2ccccc2nc1NN=Cc1ccc(Cl)cc1Cl [Compound 10 b, 2-(2-(2,4-Dichlorobenzylidene)hydrazinyl)-3-methoxyquinoxaline] | 32.1 | 35.2 | – | – | – | – | – | – |
| COc1nc2ccccc2nc1NN=Cc1c(Cl)cccc1Cl [Compound 10 c, 2-(2-(2,6-Dichlorobenzylidene)hydrazinyl)-3-methoxyquinoxaline] | 60.5 | 65.3 | – | – | – | – | – | – |
| COc1ccccc1C=NNc1nc2ccccc2nc1OC [Compound 10 d, 2-Methoxy-3-(2-(2-methoxybenzylidene)hydrazinyl)quinoxaline] | 28.6 | 27.3 | – | – | – | – | – | – |
| COc1ccc(C=NNc2nc3ccccc3nc2OC)cc1OC [Compound 10 e, 2-(2-(3,4-Dimethoxybenzylidene)hydrazinyl)-3-methoxyquinoxaline] | 55.7 | 50.6 | – | – | – | – | – | – |
| COc1cc(C=NNc2nc3ccccc3nc2OC)cc(OC)c1OC [Compound 10 f, 2-Methoxy-3-(2-(3,4,5-trimethoxybenzylidene)hydrazinyl)quinoxaline] | 56.9 | 48.8 | – | – | – | – | – | – |
| COc1nc2ccccc2nc1NN=Cc1ccc([N+](=O)[O-])cc1 [Compound 10 g, 2-Methoxy-3-(2-(4-nitrobenzylidene)hydrazinyl)quinoxaline] | 13 | 19.1 | – | – | – | – | – | – |
| COc1nc2ccccc2nc1NN=Cc1ccc(N(C)C)cc1 [Compound 10 i, 4-((2-(3-Methoxyquinoxalin-2-yl)hydrazono)methyl)-N,N-dimethylaniline] | 23 | 22.7 | – | – | – | – | – | – |
| COc1nc2ccccc2nc1NN=Cc1c(O)ccc2ccccc12 [Compound 11, 1-((2-(3-Methoxyquinoxalin-2-yl)hydrazono)methyl)naphthalen-2-ol] | 18.5 | 20.3 | – | – | – | – | – | cytotoxic (anti-proliferative) activity class [3]: strong (11–20 (strong)) |

The remaining molecules from weak to strong by IC50 ([1]; HepG-2), led by results:

| IC50 ([1]; HepG-2) [µM] | IC50 [2] [µM] | IC50 (HDAC1) [µM] | IC50 (HDAC4) [µM] | IC50 (HDAC6) [µM] | SMILES | Bax (Bax) [pg/mL] | Bcl-2 (Bcl-2) [pg/mL] | further results |
| --- | --- | --- | --- | --- | --- | --- | --- | --- |
| 11.6 | 16.4 | – | – | – | O=C1Nc2ccccc2/C1=N\Nc1nc2ccccc2nc1Cl [Compound 9, 2-(2-(3-Chloroquinoxalin-2-yl)hydrazono)indolein-3-one] | – | – | cytotoxic (anti-proliferative) activity class [3]: strong (11–20 (strong)) |
| 8.25 | 9.2 ± 0.65 | – | – | – | COc1cccc2c1C(=O)c1c(O)c3c(c(O)c1C2=O)C[C@@](O)(C(=O)CO)C[C@@H]3O[C@H]1C[C@H](N)[C@H](O)[C@H](C)O1 [Doxorubicin, reference compound] | – | – | – |
| 7.71 | 6.52 | 4.18 | 3.81 | 6.29 | Oc1ccccc1C=NNc1nc2ccccc2nc1Cl [Compound 6 k, 2-((2-(3-Chloroquinoxalin-2-yl)hydrazono)methyl)phenol] | 164.3 | 2.914 | – |
| 6.63 | 8.52 | 3.29 | 3.44 | 5.32 | COc1ccccc1C=NNc1nc2ccccc2nc1Cl [Compound 6 f, 2-Chloro-3-(2-(2-methoxybenzylidene)hydrazinyl)quinoxaline] | 185.7 | 2.705 | – |
| 6.16 | 9.47 | 3.52 | 3.25 | 4.28 | Clc1ccc(C=NNc2nc3ccccc3nc2Cl)c(Cl)c1 [Compound 6 d, 2-Chloro-3-(2-(2,4-dichlorobenzylidene)hydrazinyl)quinoxaline] | 179.2 | 2.711 | – |
| 5.56 | 6.72 | 3.54 | 3.15 | 7.21 | COc1nc2ccccc2nc1NN=Cc1ccccc1O [Compound 10 h, 2-((2-(3-Methoxyquinoxalin-2-yl)hydrazono)methyl)phenol] | 205.4 | 2.673 | – |
| 5.39 | 9.27 | 3.29 | 2.79 | 4.09 | CN(C)c1ccc(C=NNc2nc3ccccc3nc2Cl)cc1 [Compound 6 l, 4-((2-(3-Chloroquinoxalin-2-yl)hydrazono)methyl)-N,N-dimethylaniline] | 219.7 | 2.519 | – |
| 4.03 | 6.19 | 2.67 | 2.51 | 5.24 | CC(=NNc1nc2ccccc2nc1Cl)c1ccccc1O [Compound 7 b, 2-(1-(2-(3-Chloroquinoxalin-2-yl)hydrazono)ethyl)phenol] | 217.9 | 2.371 | cytotoxic (anti-proliferative) activity class [3]: very strong (1–10 (very strong)) |
| 2.16 | 3.05 | 2.17 | 1.64 | 3.81 | COc1ccc(C=NNc2nc3ccccc3nc2Cl)cc1OC [Compound 6 g, 2-Chloro-3-(2-(3,4-dimethoxybenzylidene)hydrazinyl)quinoxaline] | 247.5 | 1.687 | – |
